Laboratory results taken from PMC6917776, “Discovery of a chemical probe for PRDM9” (Nature Communications, 2019).
“Also recorded” adds a separate entry of the source. Like-named read-outs stand apart in the source and are kept apart here.

What was measured:
[1] = target: T1, DNMT3B/3L (Homo sapiens, UniProt Q9UBC3); test: Methyltransferase selectivity assay (filter-based); type: biochemical; settings: for activity at 1 µM: 1µM compound; for activity at 10 µM / Activity %: 10µM compound; for Activity %: Exp1, Exp2, 10 µM
T1 construct: purchased Structural Genomics Consortium (SGC Toronto) in-house methyltransferase panel
Method: (§1) Selectivity against methyltransferases were determined as described previously. Details of the assays are described in the supplementary methods.
(§2) Methyltransferase selectivity assay1
The effect of chemical probes and negative controls on the methyltransferase activities of protein, DNA and RNA methyltransferases was tested by radiometric assays using 3H-SAM. […]
The counts per minute (CPM) was measured on a TopCount plate reader. The CPM in the absence of compound or enzyme was defined as 100% activity and background (0%), respectively, for each dataset. […]
For proteins which were tested with nucleosome as substrate such as DOT1L, NSD1, NSD2, NSD3, and ASH1L, or unbiotinylated Poly(2′-deoxyinosinic-2′-deoxycytidylic acid) (Cat# 81349-500UG, Sigma Aldrich) such as DNMT3A/3L, and DNMT3B/3L, a filter-based assay was used. In this assay, a trichloroacetic acid (TCA) protein precipitation protocol was employed. A 10 µL reaction mixture was incubated at 23°C for 1 h, followed by addition of 50 µL of 10% TCA. The mixture was transferred to filter plates (Millipore, Billerica, MA, USA) that were centrifuged at 2000 rpm (Allegra X-15R; Beckman Coulter, Brea, CA, USA) for 2 min. Samples were washed twice with 10% TCA and once with ethanol (180 µL), and centrifuged. After drying, 100 µL MicroScint-O (Perkin Elmer) was added to each well and the plates were centrifuged to remove the liquid. A 70 µL volume of MicroScint-O was added and the CPM was measured with a TopCount plate reader.

[2] = target: T2, DNMT1 (Homo sapiens, UniProt P26358); test: Methyltransferase selectivity assay (SPA); type: biochemical
T2 construct: purchased Structural Genomics Consortium (SGC Toronto) in-house methyltransferase panel
Method: as §1, §2
The effect of chemical probes and negative controls on the methyltransferase activities of protein, DNA and RNA methyltransferases was tested by radiometric assays using 3H-SAM. For proteins such as MLL1 trimeric, MLL3 pentameric, EZH1 (PRC2) pentameric, and EZH2 (PRC2) trimeric complexes, as well as G9a, GLP, SUV39H1, SUV39H2, SUV420H1, SUV420H2, SETD2, SETD8, SETDB1, SETD7, PRMT1, PRMT3, PRMT4, PRMT5/ MEP50 complex, PRMT6, PRMT7, PRMT8, PRMT9, PRDM9, SMYD2, SMYD3, DNMT1, and BCDIN3D the incorporation of a tritium-labeled methyl group into biotinylated substrate was monitored using scintillation proximity assay (SPA). Briefly, a 10 µL reaction containing 3H-SAM and substrate at concentrations close to the apparent Km values for each enzyme (balanced conditions) was prepared. The reactions were quenched with 10 µL of 7.5 M guanidine hydrochloride; 180 µL of 20 mM Tris buffer (pH 8.0) were added, and the mixture was transferred to a 96-well FlashPlate and incubated for 1 h. The counts per minute (CPM) was measured on a TopCount plate reader. The CPM in the absence of compound or enzyme was defined as 100% activity and background (0%), respectively, for each dataset. For DNMT1, the double-stranded DNA substrate was prepared by annealing two complementary strands (biotinylated forward strand: B-[…] and reverse strand: […]

[3] = test system: spermatocytes; test: Testis microinjection, meiotic chromosome spreads (SYCP1/SYCP3 staining); type: in vivo, mouse; settings: wild type mice, 2 µl of 1 µM into both testes at P12, analysed at P15
Method: Supplementary Figure 14. Comparison of meiotic progression in the presence of MRK -740-NC and MRK-740 treated spermatocytes. Representative images of meiotic chromosome […]
(c) untreated Prdm9-/- mice are presented. At p12, mice were treated with either MRK -740-NC or MRK-740 or received no treatment. Immunofluoresence co -staining was performed with SYCP1 (green) and SYCP3 (magenta) antibodies to visualize the formation of the synaptonemal […]
mice treated with MRK-740-NC.
(1 picture or pasted object on this page, not shown here) […]
Transgenic mouse lines used in this study
Prdm9KO 2, mice have been described and were maintained on a C57BL/6 background. Mice were housed under standard conditions, were maintained on a 12- hour light/dark cycle, were fed a standard chow diet containing 6% crude fat, and were treated in compliance with the institutional guidelines for animal care and use. All experimental protocols were approved by the Animal Care and Use Committee of Biological Resource Centre at Biopolis, A*STAR, […]
Testis microinjection protocol
Seminiferous tubule microinjection was performed as previously described 3,4. At postnatal day 12 (P12) A small incision was made in the abdomen of the mouse and testes were exposed by pulling the abdominal fat pad. Testis were injected using a micro-capillary pipette injector (made in-house). […]

[4] = 10µM compound, Exp1, Exp2, 10 µM
[5] = Exp1, Exp2, read-out: Activity %

T2 sequence (P26358 whole entry): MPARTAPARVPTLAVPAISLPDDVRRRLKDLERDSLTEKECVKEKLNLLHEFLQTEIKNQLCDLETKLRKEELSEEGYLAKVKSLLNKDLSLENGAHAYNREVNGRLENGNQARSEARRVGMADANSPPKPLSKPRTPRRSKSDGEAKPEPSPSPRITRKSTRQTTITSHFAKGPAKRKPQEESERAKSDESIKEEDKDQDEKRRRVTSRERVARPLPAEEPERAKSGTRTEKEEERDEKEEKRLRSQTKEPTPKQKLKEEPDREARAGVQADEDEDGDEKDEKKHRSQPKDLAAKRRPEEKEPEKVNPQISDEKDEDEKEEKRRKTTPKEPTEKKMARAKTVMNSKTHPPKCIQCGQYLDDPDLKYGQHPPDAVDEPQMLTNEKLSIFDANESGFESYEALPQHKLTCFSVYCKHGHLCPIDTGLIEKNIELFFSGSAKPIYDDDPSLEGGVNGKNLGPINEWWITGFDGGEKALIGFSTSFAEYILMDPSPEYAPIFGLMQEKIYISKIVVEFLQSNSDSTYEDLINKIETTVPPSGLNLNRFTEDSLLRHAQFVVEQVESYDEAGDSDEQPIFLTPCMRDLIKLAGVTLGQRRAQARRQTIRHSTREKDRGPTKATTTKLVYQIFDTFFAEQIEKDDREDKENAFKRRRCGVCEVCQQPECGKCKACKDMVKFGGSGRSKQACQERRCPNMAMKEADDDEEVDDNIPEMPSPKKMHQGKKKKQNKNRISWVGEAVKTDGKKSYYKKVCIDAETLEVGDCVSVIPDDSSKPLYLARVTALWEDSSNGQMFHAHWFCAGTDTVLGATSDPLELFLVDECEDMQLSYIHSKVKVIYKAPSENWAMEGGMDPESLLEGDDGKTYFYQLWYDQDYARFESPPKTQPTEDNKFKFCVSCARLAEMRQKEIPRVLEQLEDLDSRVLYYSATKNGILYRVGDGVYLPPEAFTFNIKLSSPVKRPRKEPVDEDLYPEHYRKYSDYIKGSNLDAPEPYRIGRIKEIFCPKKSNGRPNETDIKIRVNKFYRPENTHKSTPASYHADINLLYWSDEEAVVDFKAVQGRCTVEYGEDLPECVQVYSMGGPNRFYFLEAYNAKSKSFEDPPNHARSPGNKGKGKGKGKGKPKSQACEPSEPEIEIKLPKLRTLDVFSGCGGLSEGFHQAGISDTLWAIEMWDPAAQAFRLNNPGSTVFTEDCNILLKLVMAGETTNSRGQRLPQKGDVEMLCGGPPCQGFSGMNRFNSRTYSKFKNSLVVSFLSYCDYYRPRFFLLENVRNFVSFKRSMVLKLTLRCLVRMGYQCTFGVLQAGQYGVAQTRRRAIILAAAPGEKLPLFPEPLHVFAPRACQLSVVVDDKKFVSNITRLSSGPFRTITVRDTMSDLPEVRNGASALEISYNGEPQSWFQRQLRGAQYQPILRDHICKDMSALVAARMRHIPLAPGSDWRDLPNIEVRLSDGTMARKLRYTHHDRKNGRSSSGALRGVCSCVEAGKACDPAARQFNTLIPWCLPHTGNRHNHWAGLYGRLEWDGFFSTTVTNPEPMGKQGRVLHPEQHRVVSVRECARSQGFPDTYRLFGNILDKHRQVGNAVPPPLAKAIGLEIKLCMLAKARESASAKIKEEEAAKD

SMILES	activity at 1 µM ([1]; Exp1, Exp2)	activity at 10 µM ([1]; Exp1, Exp2)	Activity % [1]	activity at 1 µM ([2]; 1µM compound, Exp1, Exp2)	activity at 10 µM ([2]; 10µM compound, Exp1, Exp2)	Activity % [2, 4]	Meiotic phenotype of spermatocytes, pachytene stage (in words) [3]	activity at 1 µM [1, 5]	activity at 10 µM [1, 5]	Activity % ([2]; 1µM compound, Exp1, Exp2, 1 µM)	activity at 1 µM ([2]; 1µM compound, Exp1, Exp2, read-out: Activity %)	activity at 10 µM ([2]; 10µM compound, Exp1, Exp2, read-out: Activity %)
COc1cc(OC)cc(-c2noc(N3CCN(C)C4(CCN(c5ccccc5)CC4)C3)n2)c1 [MRK-740 -NC]	101%	99%	97%	105%	102%	98%	–	–	–	–	–	–
COc1cc(OC)cc(-c2noc(N3CCN(C)C4(CCN(c5ccccc5)CC4)C3)n2)c1 [MRK-740-NC]	–	–	–	–	–	–	Normal synaptonemal complex formation; also recorded: no overt meiotic defects	–	–	–	–	–
COc1cc(OC)cc(-c2noc(N3CCN(C)C4(CCN(c5ccnc(C)c5)CC4)C3)n2)c1 [MRK-740]	–	–	90%	–	–	101%	Abnormal synaptonemal complex formation; also recorded: meiotic defects including non-homologous synapsis or failed pairing of chromosomal homologs	100%	82%	95%	98%	99%
